According to patent US20190297888A1, “FUNGICIDAL COMPOUNDS AND MIXTURES FOR FUNGAL CONTROL IN CEREALS” (Dow AgroSciences LLC, priority 2016, published 2019):

How the values were obtained:
Assay type in all cases: in vivo
[1] = system: Puccinia triticina (PUCCRT); experiment: Field assessment of Compound I and penthiopyrad on brown rust of wheat (AUDPC % control); conditions: AUDPC-based, 2 field trials
From the text: (§1) Treatments consisting of the compound of Formula I and fungicide compound penthiopyrad were applied either using individually or as a two-way mixture of penthiopyrad with the compound of Formula I. The compound of Formula I was applied with Agnique BP-420 (50% w/w at 0.3% v/v) at 75 and 150 g ai/ha and Penthiopyrad (Vertisan) was applied at 125 and 200 g ai/ha. Commercial standards used in the studies were Fluxapyroxad (Imtrex), applied at 100 g ai/ha, and Metconazole+Fluxapyroxad (Librax), applied at 161 g ai/ha.
Fungicidal treatments containing the compound of Formula I and penthiopyrad, either individually or as a two-way mixture, were assessed against brown rust of wheat (PUCCRT) in two separate field trials. In the first trial, fungicidal treatments were applied at B37-39 (protectant, approximately 0% infection at application) growth stages of wheat (TRZAW, MV Vanek variety) under natural infection of brown rust. The treatment was part of an experimental trial designed as a randomized complete block with four replications and a plot of approximately 2×3 m. Fungicidal treatments were applied at a water volume of 200 L/ha, using a backpack plot sprayer with a TEEJET QJ90-2XTT110 015 Nozzle.
In the second trial, fungicidal treatments containing the compound of Formula I and penthiopyrad, either individually or as a two-way mixture, were applied at B33 (curative, approximately 6.6% infection at application) growth stage of wheat (TRZAW, Miradoux variety) under natural infection of brown rust. The treatments were part of an experimental trial designed as a randomized complete block with four replications and a plot of approximately 2×3 m. Fungicidal treatments were applied at a water volume of 200 L/ha, using a backpack plot sprayer with a HARDI MD 110-02 Nozzle.
(§2) Disease severity (percentage of visual diseased foliage on whole plot or leaves) in both field trials was recorded following EPPO PP1/26 guideline prescriptions. Area under the disease progress curve (AUDPC) was calculated for each plot in both trials using the sets of recorded severity data. Relative AUDPC (% control based on AUDPC) was calculated as percent of the nontreated control. Final results for the control of brown rust of wheat by the compound of Formula I, penthiopyrad and mixtures are reported as an average of the relative AUDPC calculated over all […] field trials. Statistical analysis was done according to ANOVA and Tukey's test (p=0.10).

[2] = system: Puccinia striiformis (PUCCST); experiment: Field assessment of Compound I and penthiopyrad on yellow rust of wheat (AUDPC % control); conditions: AUDPC-based, 2 field trials
From the text: as §1
Fungicidal treatments containing the compound of Formula I and penthiopyrad, either individually or as a two-way mixture, were assessed against yellow rust of wheat (PUCCST) in two separate field trials. In the first trial, fungicidal treatments were applied twice at B31-32 (early curative, 2% infection at application on L3) and B37-39 (0% infection at application on L) growth stages of winter wheat (TRZAW, Fairplay variety). The treatments were part of an experimental trial designed as a randomized complete block with four replications and a plot of approximately 1×6 m. Treatments were applied at water volume of 200 L/ha, using a backpack plot sprayer (BKPCKENG, F110-015 Hardi (3) Flat fan nozzle) and pressurized at 200 kPa.
In the second trial, fungicidal treatments containing the compound of Formula I and penthiopyrad, either individually or as a two-way mixture, were applied twice at B31-32 (early curative, 5% infection on L5 at application) and B37-39 (early curative, 5% infection on L1 and L2 at application) growth stages of wheat (TRZAW, Torch variety). The treatment was part of an experimental trial designed as a randomized complete block with four replications and a plot of approximately 2×3 m. Treatments were applied at water volume of 200 L/ha, using a backpack precision plot sprayer (BKCKAIR, F110-03 Hypro (4) Flat fan nozzle) and pressurized at 300 kPa.
as §2, with “yellow” for “brown”

[3] = system: Zymoseptoria tritici (SEPTTR); experiment: Field assessment of Compound I and penthiopyrad on leaf blotch of wheat (AUDPC % control); conditions: AUDPC-based, 3 field trials
From the text: as §1
Fungicidal treatments containing the compound of Formula I and penthiopyrad, either individually or as a two-way mixture, were assessed against leaf spot of wheat (SEPTTR) in three separate field trials. In the first trial, fungicidal treatments were applied at B33 (3% infection at application on L3) growth stage of winter wheat (TRZAW, Dinosor variety). The treatments were part of an experimental trial designed as a randomized complete block with four replications and a plot of approximately 1×6 m. Treatments were applied at water volume of 200 L/ha, using a backpack plot sprayer (BKPCKENG, FLATFANA nozzle) and pressurized at 200 kPa.
In the second trial, fungicidal treatments were applied twice at B32 (curative, 25% infection at application on L5) and B37-39 (5% infection at application on L3) growth stages of winter wheat (TRZAW, Consort variety). The treatments were part of an experimental trial designed as a randomized complete block with four replications and a plot of approximately 1×2 m. Treatments were applied at water volume of 200 L/ha, using a backpack plot sprayer (BKPCKAIR, Flat fan nozzle) and pressurized at 210 kPa.
In the final trial, fungicidal treatments were applied twice at B32 (protective, 15% infection at application on L6) and B37-39 (12% infection at application on L5) growth stages of winter wheat (TRZAW, Smaragd variety). The treatments were part of an experimental trial designed as a randomized complete block with four replications and a plot of approximately 2×3 m. Treatments were applied at water volume of 200 L/ha, using a backpack plot sprayer (BICYCAIR, FLATFANA nozzle) and pressurized at 220 kPa.
as §2, with “leaf spot” for “brown rust”, “Statistical analysis was done according to ANOVA and Tukey's test (p=0.10).” left out

CC(C)CC(C)c1sccc1NC(=O)c1cn(C)nc1C(F)(F)F (stereo not drawn) [Penthiopyrad, N-[2-(1,3-dimethylbutyl)-3-thienyl]-1-methyl-3-(trifluoromethyl)-1H-pyrazole-4-carboxamide]
PUCCRT % Control ([1]; rate 125 g ai/ha): 84.2% | PUCCRT % Control ([1]; rate 200 g ai/ha): 85.1% | PUCCST % Control ([2]; rate 125 g ai/ha): 39.6% | PUCCST % Control ([2]; rate 200 g ai/ha): 46.5% | SEPTTR % Control ([3]; rate 125 g ai/ha): 42.3% | SEPTTR % Control ([3]; rate 200 g ai/ha): 51.4%
